Reference: PMC12846068, “Insights into Transport Function of the Murine Organic Anion-Transporting Polypeptide OATP1B2 by Comparison with Its Rat and Human Orthologues” (Toxics, 2025)
Entries after “also recorded” stand apart in the source; their conditions may differ. Like-named read-outs stand apart in the source and are kept apart here. Blank lines part the entries; values can stand above or below the molecule they belong to.

Assays:
hOATP1B1 [1] = biological target: T1, hOATP1B1 (Homo sapiens, UniProt Q9Y6L6); assay: cis-inhibition of hOATP1B1-mediated E1S uptake in HEK293 cells; type: cell-based; parameters: expressed in transfected cells; host or cells: HEK-293, stably transfected; settings: 10 µM drug; for inhibition at 1 min, 10 µM: human, HEK293 cells expressing hOATP1B1, probe 0.01 µM [3H]-E1S, read-out: Inhibitory effect on hOATP1B1-mediated E1S uptake; for Inhibitory effect on hOATP1B1-mediated E1S uptake: 0.01 µM [3H]-E1S, 1 min
T1 sequence (Q9Y6L6 1-691): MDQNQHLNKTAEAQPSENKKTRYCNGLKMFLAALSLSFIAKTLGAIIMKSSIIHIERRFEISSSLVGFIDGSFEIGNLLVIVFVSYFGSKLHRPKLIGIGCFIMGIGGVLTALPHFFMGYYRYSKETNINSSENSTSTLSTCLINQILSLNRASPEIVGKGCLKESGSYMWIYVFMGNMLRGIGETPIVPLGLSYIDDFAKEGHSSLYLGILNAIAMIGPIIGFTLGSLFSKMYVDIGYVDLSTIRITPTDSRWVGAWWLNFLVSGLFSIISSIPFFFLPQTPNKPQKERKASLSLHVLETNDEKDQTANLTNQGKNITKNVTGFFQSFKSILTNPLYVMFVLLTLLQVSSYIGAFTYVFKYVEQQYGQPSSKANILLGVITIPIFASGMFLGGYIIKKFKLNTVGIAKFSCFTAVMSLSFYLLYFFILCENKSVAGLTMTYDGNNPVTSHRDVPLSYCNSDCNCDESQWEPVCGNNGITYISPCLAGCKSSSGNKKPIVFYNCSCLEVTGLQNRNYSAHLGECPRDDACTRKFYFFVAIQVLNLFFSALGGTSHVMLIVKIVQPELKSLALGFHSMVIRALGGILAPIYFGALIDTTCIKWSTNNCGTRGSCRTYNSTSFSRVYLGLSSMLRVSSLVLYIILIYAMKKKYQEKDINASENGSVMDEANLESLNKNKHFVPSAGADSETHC
Protocol: Inhibitory effects were calculated as a percentage of the net-uptake rates.
The means ± average deviation (AD, for N = 2) were calculated from two experiments on two different days. The significance as a p-value was calculated using Student’s t-test in Microsoft Excel.

hOATP1B1 [2] = biological target: T1, hOATP1B1; settings: read-out: IC50 for hOATP1B1, cited from earlier work
hOATP1B3 [3] = biological target: T2, hOATP1B3 (Homo sapiens, UniProt Q9NPD5); settings: read-out: IC50 for OATP1B3; cited from earlier work
T2 sequence (Q9NPD5 1-702): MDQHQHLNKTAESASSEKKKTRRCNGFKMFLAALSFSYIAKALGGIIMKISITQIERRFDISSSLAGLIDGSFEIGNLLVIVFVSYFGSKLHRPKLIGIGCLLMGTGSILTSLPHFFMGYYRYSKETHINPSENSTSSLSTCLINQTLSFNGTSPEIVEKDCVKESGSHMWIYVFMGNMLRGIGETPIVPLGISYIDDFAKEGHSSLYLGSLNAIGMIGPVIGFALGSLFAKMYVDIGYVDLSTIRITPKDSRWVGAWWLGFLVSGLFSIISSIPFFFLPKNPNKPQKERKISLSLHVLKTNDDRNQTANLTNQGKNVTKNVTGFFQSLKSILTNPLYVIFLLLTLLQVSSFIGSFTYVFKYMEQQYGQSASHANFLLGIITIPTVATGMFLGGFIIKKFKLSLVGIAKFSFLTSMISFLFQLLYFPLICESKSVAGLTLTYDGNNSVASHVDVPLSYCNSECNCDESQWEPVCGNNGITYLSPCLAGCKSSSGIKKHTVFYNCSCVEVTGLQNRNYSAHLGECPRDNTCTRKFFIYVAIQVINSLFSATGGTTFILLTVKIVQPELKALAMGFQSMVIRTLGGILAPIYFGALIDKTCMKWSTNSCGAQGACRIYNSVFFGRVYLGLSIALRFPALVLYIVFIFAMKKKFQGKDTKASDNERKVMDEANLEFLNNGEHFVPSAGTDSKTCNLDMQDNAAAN

rOATP1B2 = biological target: T3, rOATP1B2 (Rattus norvegicus, UniProt Q9QZX8); parameters: method as in Ishida et al. (2018) [9]; settings: ref Ishida et al. (2018) [9]; read-out: Km, rOATP1B2-mediated uptake; cited from earlier work
T3 construct: The full-length mOATP1B2 and rOATP1B2 consist of 689 and 678 amino acids
T3 sequence (Q9QZX8 1-687): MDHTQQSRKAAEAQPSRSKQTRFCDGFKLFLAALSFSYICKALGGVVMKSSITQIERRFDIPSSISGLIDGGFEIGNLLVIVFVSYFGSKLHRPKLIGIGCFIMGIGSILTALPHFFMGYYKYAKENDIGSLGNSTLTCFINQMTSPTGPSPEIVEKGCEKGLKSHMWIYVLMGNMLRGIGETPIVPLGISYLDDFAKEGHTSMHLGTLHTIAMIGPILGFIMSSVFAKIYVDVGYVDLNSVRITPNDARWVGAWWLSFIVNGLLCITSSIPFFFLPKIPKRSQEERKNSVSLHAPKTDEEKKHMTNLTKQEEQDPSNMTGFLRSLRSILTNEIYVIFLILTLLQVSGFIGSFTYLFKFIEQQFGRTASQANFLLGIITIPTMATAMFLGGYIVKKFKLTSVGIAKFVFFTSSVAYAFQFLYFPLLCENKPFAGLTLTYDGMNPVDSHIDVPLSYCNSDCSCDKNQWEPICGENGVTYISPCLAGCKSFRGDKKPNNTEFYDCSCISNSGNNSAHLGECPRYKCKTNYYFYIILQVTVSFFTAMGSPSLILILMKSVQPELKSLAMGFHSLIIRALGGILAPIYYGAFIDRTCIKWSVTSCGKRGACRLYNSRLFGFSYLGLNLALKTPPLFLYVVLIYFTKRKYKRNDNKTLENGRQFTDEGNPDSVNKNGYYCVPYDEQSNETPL

hOATP1B1 [4] = biological target: T1, hOATP1B1; parameters: expressed in transfected cells; host or cells: HEK-293, stably transfected; settings: read-out: Km as substrate of hOATP1B1; cited from earlier work
hOATP1B3 [5] = biological target: T2, hOATP1B3; parameters: expressed in transfected cells; host or cells: HEK-293, stably transfected; settings: read-out: Km as substrate of hOATP1B3; cited from earlier work

Compound: Clc1ccccc1C(c1ccccc1)(c1ccccc1)n1ccnc1 [Clotrimazole, clotrimazole]
IC50 (hOATP1B1 [2]): 9 µM | Inhibitory effect on hOATP1B1-mediated E1S uptake (hOATP1B1 [1]): did not inhibit | inhibition at 1 min, 10 µM (hOATP1B1 [1]): 10%

Compound: CC(C)CN(C[C@@H](O)[C@H](Cc1ccccc1)NC(=O)O[C@H]1CCOC1)S(=O)(=O)c1ccc(N)cc1 [Amprenavir, amprenavir]
IC50 (hOATP1B1 [2]; ref Karlgren et al. (2012) [21]): 16.8 µM | IC50 (hOATP1B3 [3]): 19.1 µM | Inhibitory effect on hOATP1B1-mediated E1S uptake (hOATP1B1 [1]): −1% | Inhibitory effect on hOATP1B1-mediated E1S uptake (hOATP1B1 [1]; listed as amprenavir): less than 50%

Compound: CC(=O)N1CCN(c2ccc(OCC3COC(Cn4ccnc4)(c4ccc(Cl)cc4Cl)O3)cc2)CC1 (centres unmarked) [Ketoconazole, ketoconazole]
IC50 (hOATP1B1 [2]; estradiol-17β-glucuronide as substrate): 1.8 µM | Inhibitory effect on hOATP1B1-mediated E1S uptake (hOATP1B1 [1]): 25% | Inhibitory effect on hOATP1B1-mediated E1S uptake (hOATP1B1 [1]; listed as ketoconazole): less than 50%

Compound: CCCCC1(CCCC)CN(c2ccccc2)c2cc(SC)c(OCC(=O)N[C@@H](C(=O)N[C@@H](CC)C(=O)O)c3ccc(O)cc3)cc2S(=O)(=O)N1 [Odevixibat, odevixibat]
Inhibitory effect on hOATP1B1-mediated E1S uptake (hOATP1B1 [1]): completely inhibited; also recorded: complete inhibition | inhibition at 1 min, 10 µM (hOATP1B1 [1]): 96%

Further lines, with some results ahead:

inhibition at 1 min, 10 µM (hOATP1B1 [1]): 59%
Compound: CO[C@H]1/C=C/O[C@@]2(C)Oc3c(C)c(O)c4c(O)c(c(/C=N/N5CCN(C)CC5)c(O)c4c3C2=O)NC(=O)/C(C)=C\C=C\[C@H](C)[C@H](O)[C@@H](C)[C@@H](O)[C@@H](C)[C@H](OC(C)=O)[C@@H]1C [Rifampicin, rifampicin]

inhibition at 1 min, 10 µM (hOATP1B1 [1]): 16%
Compound: CC(C)c1nc(N(C)S(C)(=O)=O)nc(-c2ccc(F)cc2)c1/C=C/[C@@H](O)C[C@@H](O)CC(=O)O [Rosuvastatin, rosuvastatin]
Km (rOATP1B2): 28.1 µM | Km (hOATP1B1 [4]): 0.8 µM | Km (hOATP1B3 [5]): 14.2 µM
